Measurements published in US20240408169A1 (priority 2023, published 2024).
pIC50: −log10 of the molar value. Where two headings read alike, the source gives them in different places. *1 amine or outer side, *2 acyl side, *3 side chain or, on linkers, in order; H or OH if unused. Where a SMILES comes first, the peptide text is derived from it. Bridges are numbered along the chain shown (N, C = ends). [ ]: non-standard residue; d: D form. The star is where a group is joined. X47 = C[C@@H]1CN(c2ccc(-c3ccc(Cl)cc3C[C@@H](C(=O)[*:2])N(C)[*:1])cc2)C[C@H](C)N1C; X34 = CN1CC(N2CCN(c3ccc(-c4ccc(Cl)cc4C[C@@H](C(=O)[*:2])N(C)[*:1])cc3)CC2)C1; X92 = CN1CCN(C(=O)c2ccc(-c3ccc(Cl)cc3C[C@@H](C(=O)[*:2])N(C)[*:1])cc2)CC1; X98 = CN1CC2(C1)OCc1cc(-c3ccc(Cl)cc3C[C@@H](C(=O)[*:2])N(C)[*:1])ccc12; X114 = CN([C@@H](Cc1cc(Cl)ccc1-c1ccc(OCCN2CCOCC2)cc1)C(=O)[*:2])[*:1]; X59 = CC(c1ccc(-c2ccc(Cl)cc2C[C@@H](C(=O)[*:2])N(C)[*:1])cc1)N1CCOCC1; X46 = CN([C@@H](Cc1cc(Cl)ccc1-c1ccc(S(C)(=O)=O)cc1)C(=O)[*:2])[*:1]; X8 = CN1CCN(C2CC=C(c3ccc(Cl)cc3C[C@@H](C(=O)[*:2])N(C)[*:1])CC2)CC1; X49 = CN1CCc2ccc(-c3ccc(Cl)cc3C[C@@H](C(=O)[*:2])N(C)[*:1])cc2C1; X90 = CC(=O)N1CC=C(c2ccc(Cl)cc2C[C@@H](C(=O)[*:2])N(C)[*:1])CC1; X26 = CN([C@@H](Cc1cc(F)ccc1-c1cnn(C2CC2)c1)C(=O)[*:2])[*:1]; NMehhhLys(Me) = CN([C@@H](CCCCCCCN(C)[*:3])C(=O)[*:2])[*:1]; Spiro(3.3)heptane2CO(2-CF3) = O=C(C1(C(F)(F)F)CC2(CCC2)C1)*; X22 = CN([C@@H](Cc1cc(Cl)ccc1-c1cnn(C)c1)C(=O)[*:2])[*:1]; NMe(hhhLys) = CN([C@@H](CCCCCCCN[*:3])C(=O)[*:2])[*:1]; Oxane2carbonyl(2R-CF3) = O=C([C@@]1(C(F)(F)F)CCCCO1)*; X28 = CN([C@@H](Cc1cc(Cl)cnc1OC1CCC1)C(=O)[*:2])[*:1]; Cyclobutanecarbonyl(1-CF3) = O=C(C1(C(F)(F)F)CCC1)*; cBuCO(3,3-F2-1-CF3) = O=C(C1(C(F)(F)F)CC(F)(F)C1)*; Pro(trans-4-F) = O=C(O)[C@@H]1C[C@@H](F)CN1; Gly(cPr) = N[C@H](C(=O)O)C1CC1

Legend:
[1] = target: T1, CyclinA2/CDK2 (Homo sapiens, UniProt P20248); assay: Fluorescence Polarization (FP) competitive binding assay, Cyclin A2/Cdk2;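 further: plates equilibrated two hours at room temperature before polarization reading, IC50 fitted from eight-concentration compound titration curves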
T1 construct: purchased CRELUX Protein Services

[2] = target: T2, CyclinB1/CDK1 (Homo sapiens, UniProt P14635); assay: Fluorescence Polarization (FP) competitive binding assay, Cyclin B1/Cdk1;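 further: fluorescence polarization read after equilibration at room temperature, with IC50 taken from serially diluted dose-response curves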
T2 construct: purchased Eurofins, discovery 14-450

[3] = target: T3, CyclinE1/CDK2 (Homo sapiens, UniProt P24864); assay: Fluorescence Polarization (FP) competitive binding assay, Cyclin E1/Cdk2;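 further: readings taken after two-hour equilibration at room temperature in HEPES buffer with NaCl, DTT, NP-40 and BSA, IC50 fitted from eight-concentration serial dilution series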
T3 construct: purchased Eurofins, discovery 14-475

[4] = tested on: WI-38 cells; assay: MTT proliferation assay, WI-38; assay type: cell-based; conditions: 3 days compound exposure, 1:3 serial dilution starting at 10 μM;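 further: Eight- or ten-point dilution series, with exposure length chosen to span about three to four cell doublings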
[5] = tested on: NCI-H1048 cells; assay: MTT proliferation assay, NCI-H1048; assay type: cell-based; conditions: 5 days compound exposure, 1:3 serial dilution starting at 10 μM;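 further: Dose-response in 96-well plates over 8 or 10 concentration points, with exposure spanning 3-4 cell doublings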
[6] = tested on: OVCAR3 cells; assay: MTT proliferation assay, OVCAR3; assay type: cell-based; conditions: 5 days compound exposure, 1:3 serial dilution starting at 10 μM;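 further: compound given as an 8- or 10-point series, one day after plating, with exposure covering roughly 3-4 cell doublings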
[7] = 8 nM Cyclin A2/Cdk2, 2 nM FAM probe, average of 2-3 independent experiments, read-out: Cyclin A FP IC50
[8] = 10 nM Cyclin B1/Cdk1, 2 nM FAM probe; average of 2-3 independent experiments; read-out: Cyclin B FP IC50
[9] = 10 nM Cyclin E1/Cdk2, 2 nM FAM probe, average of 2-3 independent experiments, read-out: Cyclin E FP IC50
[10] = read-out: Cyclin B FP IC50; 10 nM Cyclin B1/Cdk1, 2 nM FAM probe; average of 2-3 independent experiments

Compound | pIC50 [1, 7] | pIC50 [2, 8] | pIC50 [3, 9] | GI50 [4] | GI50 [5] | GI50 [6] | pIC50 [1] | pIC50 [2, 10] | pIC50 [3]
CC(C)C[C@@H]1NC(=O)[C@@H](N(C)C(=O)[C@@H](NC(=O)[C@@H]2C[C@@H](F)CN2C(=O)C2(C(F)(F)F)CCC2)C2CC2)CCCCCCCNC(=O)[C@H](Cc2cc(Cl)cnc2OC2CCC2)N(C)C1=O [Example 141] ({Cyclobutanecarbonyl(1-CF3)}-[Pro(trans-4-F)][Gly(cPr)][NMe(hhhLys)]L[X28]; lactam 3-C) | 7.40 | 7.70 | 7.00 | 3390 nM | 90 nM | 190 nM | – | – | –
CC(C)C[C@@H]1NC(=O)[C@@H](N(C)C(=O)[C@@H](NC(=O)[C@@H]2C[C@@H](F)CN2C(=O)C2(C(F)(F)F)CC(F)(F)C2)C2CC2)CCCCCCCN(C)C(=O)[C@H](Cc2cc(Cl)ccc2-c2ccc(C(C)N3CCOCC3)cc2)N(C)C1=O (stereo partly drawn) [Example 403] ({cBuCO(3,3-F2-1-CF3)}-[Pro(trans-4-F)][Gly(cPr)][NMehhhLys(Me)]L[X59]; lactam 3-C) | 7.70 | 7.70 | 6.17 | 3990 nM | 10 nM | 10 nM | – | – | –
CC(C)C[C@@H]1NC(=O)[C@@H](N(C)C(=O)[C@@H](NC(=O)[C@@H]2C[C@@H](F)CN2C(=O)C2(C(F)(F)F)CCC2)C2CC2)CC=CCCCCN(C)C(=O)[C@H](Cc2cc(F)ccc2-c2cnn(C)c2)N(C)C1=O [Example 40] | 7.30 | 7.70 | 6.62 | 15400 nM | 60 nM | 50 nM | – | – | –
CC(C)C[C@@H]1NC(=O)[C@@H](N(C)C(=O)[C@@H](NC(=O)[C@@H]2C[C@@H](F)CN2C(=O)C2(C(F)(F)F)CC(F)(F)C2)C2CC2)CCCCCCCN(C)C(=O)[C@H](Cc2cc(Cl)ccc2-c2ccc(S(C)(=O)=O)cc2)N(C)C1=O [Example 262] ({cBuCO(3,3-F2-1-CF3)}-[Pro(trans-4-F)][Gly(cPr)][NMehhhLys(Me)]L[X46]; lactam 3-C) | 7.70 | 7.70 | 6.04 | 16200 nM | 10 nM | 20 nM | – | – | –
CC(C)C[C@@H]1NC(=O)[C@@H](N(C)C(=O)[C@@H](NC(=O)[C@@H]2C[C@@H](F)CN2C(=O)C2(C(F)(F)F)CC(F)(F)C2)C2CC2)CCCCCCCN(C)C(=O)[C@H](Cc2cc(Cl)ccc2-c2ccc(C(=O)N3CCN(C)CC3)cc2)N(C)C1=O [Example 390] ({cBuCO(3,3-F2-1-CF3)}-[Pro(trans-4-F)][Gly(cPr)][NMehhhLys(Me)]L[X92]; lactam 3-C) | 7.70 | 7.70 | 6.06 | 9240 nM | 30 nM | 20 nM | – | – | –
CC(C)C[C@@H]1NC(=O)[C@@H](N(C)C(=O)[C@@H](NC(=O)[C@@H]2C[C@@H](F)CN2C(=O)C2(C(F)(F)F)CC(F)(F)C2)C2CC2)CCCCCCCN(C)C(=O)[C@H](Cc2cc(Cl)ccc2-c2cnn(C)c2)N(C)C1=O [Example 49] ({cBuCO(3,3-F2-1-CF3)}-[Pro(trans-4-F)][Gly(cPr)][NMehhhLys(Me)]L[X22]; lactam 3-C) | 7.70 | 7.70 | 6.46 | 11500 nM | 10 nM | 10 nM | – | – | –
CC(C)C[C@@H]1NC(=O)[C@@H](N(C)C(=O)[C@@H](NC(=O)[C@@H]2C[C@@H](F)CN2C(=O)C2(C(F)(F)F)CC(F)(F)C2)C2CC2)CCCCCCCN(C)C(=O)[C@H](Cc2cc(Cl)ccc2-c2ccc3c(c2)COC32CN(C)C2)N(C)C1=O [Example 355] ({cBuCO(3,3-F2-1-CF3)}-[Pro(trans-4-F)][Gly(cPr)][NMehhhLys(Me)]L[X98]; lactam 3-C) | 7.70 | 7.70 | 5.75 | 2770 nM | 10 nM | 10 nM | – | – | –
CC(C)C[C@@H]1NC(=O)[C@@H](N(C)C(=O)[C@@H](NC(=O)[C@@H]2C[C@@H](F)CN2C(=O)C2(C(F)(F)F)CC3(CCC3)C2)C2CC2)CCCCCCCN(C)C(=O)[C@H](Cc2cc(Cl)ccc2-c2cnn(C)c2)N(C)C1=O [Example 203] ({Spiro(3.3)heptane2CO(2-CF3)}-[Pro(trans-4-F)][Gly(cPr)][NMehhhLys(Me)]L[X22]; lactam 3-C) | – | – | – | 3700 nM | 60 nM | 50 nM | 7.40 | 7.70 | 5.90
CC(C)C[C@@H]1NC(=O)[C@@H](N(C)C(=O)[C@@H](NC(=O)[C@@H]2C[C@@H](F)CN2C(=O)C2(C(F)(F)F)CC(F)(F)C2)C2CC2)CCCCCCCN(C)C(=O)[C@H](Cc2cc(Cl)ccc2-c2ccc(OCCN3CCOCC3)cc2)N(C)C1=O [Example 339] ({cBuCO(3,3-F2-1-CF3)}-[Pro(trans-4-F)][Gly(cPr)][NMehhhLys(Me)]L[X114]; lactam 3-C) | 7.70 | 7.70 | 6.40 | 5620 nM | 10 nM | 10 nM | – | – | –
CC(C)C[C@@H]1NC(=O)[C@@H](N(C)C(=O)[C@@H](NC(=O)[C@@H]2C[C@@H](F)CN2C(=O)C2(C(F)(F)F)CC(F)(F)C2)C2CC2)CCCCCCCN(C)C(=O)[C@H](Cc2cc(Cl)ccc2-c2ccc3c(c2)CN(C)CC3)N(C)C1=O [Example 406] ({cBuCO(3,3-F2-1-CF3)}-[Pro(trans-4-F)][Gly(cPr)][NMehhhLys(Me)]L[X49]; lactam 3-C) | 7.70 | 7.70 | 5.75 | 3350 nM | 20 nM | 40 nM | – | – | –
CC(C)C[C@@H]1NC(=O)[C@@H](N(C)C(=O)[C@@H](NC(=O)[C@@H]2C[C@@H](F)CN2C(=O)C2(C(F)(F)F)CC(F)(F)C2)C2CC2)CCCCCCCN(C)C(=O)[C@H](Cc2cc(Cl)ccc2-c2ccc(N3C[C@@H](C)N(C)[C@@H](C)C3)cc2)N(C)C1=O [Example 384] ({cBuCO(3,3-F2-1-CF3)}-[Pro(trans-4-F)][Gly(cPr)][NMehhhLys(Me)]L[X47]; lactam 3-C) | 7.70 | 7.70 | 6.23 | 2210 nM | 10 nM | 10 nM | – | – | –
CC(C)C[C@@H]1NC(=O)[C@@H](N(C)C(=O)[C@@H](NC(=O)[C@@H]2C[C@@H](F)CN2C(=O)C2(C(F)(F)F)CC(F)(F)C2)C2CC2)CCCCCCCN(C)C(=O)[C@H](Cc2cc(Cl)ccc2-c2ccc(N3CCN(C4CN(C)C4)CC3)cc2)N(C)C1=O [Example 383, (2S,4R)—N—((S)-2-(((3S,6S,9S)-3-((4-chloro-4′-(4-(1-methylazetidin-3-yl)piperazin-1-yl)-[1,1′-biphenyl]-2-yl)methyl)-6-isobutyl-1,4-dimethyl-2,5,8-trioxo-1,4,7-triazacyclohexadecan-9-yl)(methyl)amino)-1-cyclopropyl-2-oxoethyl)-1-(3,3-difluoro-1-(trifluoromethyl)cyclobutane-1-carbonyl)-4-fluoropyrrolidine-2-carboxamide] ({cBuCO(3,3-F2-1-CF3)}-[Pro(trans-4-F)][Gly(cPr)][NMehhhLys(Me)]L[X34]; lactam 3-C) | 7.70 | 7.70 | 6.28 | 2700 nM | 10 nM | 10 nM | – | – | –
CC(C)C[C@@H]1NC(=O)[C@@H](N(C)C(=O)[C@@H](NC(=O)[C@@H]2C[C@@H](F)CN2C(=O)C2(C(F)(F)F)CC(F)(F)C2)C2CC2)CCCCCCCN(C)C(=O)[C@H](Cc2cc(Cl)ccc2C2=CCC(N3CCN(C)CC3)CC2)N(C)C1=O (stereo partly drawn) [Example 376] ({cBuCO(3,3-F2-1-CF3)}-[Pro(trans-4-F)][Gly(cPr)][NMehhhLys(Me)]L[X8]; lactam 3-C) | 7.70 | 7.70 | 5.88 | 3450 nM | 10 nM | 10 nM | – | – | –
CC(C)C[C@@H]1NC(=O)[C@@H](N(C)C(=O)[C@@H](NC(=O)[C@@H]2C[C@@H](F)CN2C(=O)[C@@]2(C(F)(F)F)CCCCO2)C2CC2)CCCCCCCN(C)C(=O)[C@H](Cc2cc(F)ccc2-c2cnn(C3CC3)c2)N(C)C1=O [Example 147] ({Oxane2carbonyl(2R-CF3)}-[Pro(trans-4-F)][Gly(cPr)][NMehhhLys(Me)]L[X26]; lactam 3-C) | 7.70 | 7.70 | 7.00 | 1240 nM | 10 nM | 10 nM | – | – | –
CCN(C(=O)[C@@H](NC(=O)[C@@H]1C[C@@H](F)CN1C(=O)C1(C(F)(F)F)CCC1)C1CC1)[C@H]1CCCCCCCN(C)C(=O)[C@H](Cc2cc(Cl)cnc2OC2CC2)N(C)C(=O)[C@H](CC(C)C)NC1=O [Example 220] | – | – | – | 5200 nM | 30 nM | 70 nM | 7.05 | 7.70 | 6.17
CC(=O)N1CC=C(c2ccc(Cl)cc2C[C@H]2C(=O)NCCCCCCC[C@H](N(C)C(=O)[C@@H](NC(=O)[C@@H]3C[C@@H](F)CN3C(=O)C3(C(F)(F)F)CC(F)(F)C3)C3CC3)C(=O)N[C@@H](CC(C)C)C(=O)N2C)CC1 [Example 20] ({cBuCO(3,3-F2-1-CF3)}-[Pro(trans-4-F)][Gly(cPr)][NMe(hhhLys)]L[X90]; lactam 3-C) | 7.70 | 7.70 | 5.82 | 11100 nM | 20 nM | 20 nM | – | – | –
